The text below walks through data of patent US4613613A, “γ-butyrolactone derivatives, process for preparing the same and immunomodulating compositions containing the same as active ingredients” (Mitsubishi Yuka Pharmaceutical Co., Ltd., priority 1983, dated 1986).

Data set [1] is described as follows: Acute Toxicity Test (oral, mortality by 3-days observation). The conditions noted are these: mouse, in vivo, ddY male mice. As for the experimental part: Using ddY strain male mice of 7-8 weeks old, each group consisting of 5 mice, a suspension of the present compound in a 1% tragacanth solution was administered orally. Then, mortality was examined by 3-days observation.

In a further data set the test system is living body. The conditions noted are these: background, known immunomodulating agents; cited from earlier work.
In another data set the test system is adjuvant arthritis. In words: Adjuvant Arthritis Inhibiting Activity (paw volume). Type of data set: in vivo, rat (F-344 strain male rats). The conditions noted are these: measured after 24 days, * p < 0.05 (Ttest). As for the experimental part: F-344 strain male rats of 9 weeks old (Nippon Charles River), each group consisting of 8-10 rats, were employed for assessment of adjuvant arthritis inhibiting activity of the present compounds Arthritis was induced by subsutaneous injection of 100 μl of a 6% paraffin oil suspension of Mycobacterium butyricum into hind paw. The test compound was suspended in a 1% tragacanth solution and then administered orally everyday from the day of adjuvant injection up to the 21st day at a volume of 5 ml/kg. After 24 days from the sensitization, paw volume was measured Oral administration of solely a 1% tragacanth solution was applied for control.

Where [2] appears, read: 30 mg/Kg oral everyday to 21st day, Controls: 3.48 ± 0.11 (No. 23), 3.62 ± 0.06 (No. 40), 3.58 ± 0.20 (No. 83).
Setting [3] is: 300 mg/Kg oral everyday to 21st day, Controls: 3.48 ± 0.11 (No. 23), 3.62 ± 0.06 (No. 40).

The term LD50 denotes the dose at which mortality reaches 50%.

`O=C1OCC(c2ccccc2)C1CSCc1ccccc1` (stereo not shown) [Compound 84] returned a 50% lethal dose (LD50) at 72 h in data set [1] of over 4000 mg/kg.
As to `O=C([O-])c1ccccc1Nc1cc(Cl)ccc1C(=O)[O-].[Na+].[Na+]` [N-(2-carboxyphenyl)-4-chloroanthranilic acid disodium salt], the “toxicity to a living body (in words)” value in the data set on living body is “strong toxicity”.
In data set [1], `Cc1ccc(C(=O)SCC2C(=O)OCC2c2ccccc2)cc1` (stereo not shown) [Compound 7] registered a 50% lethal dose (LD50) at 72 h of over 4000 mg/kg.
Regarding `CC(=O)SCC1C(=O)OCC1c1ccccc1` (stereo not drawn) [Compound 40, α-acetylthiomethyl-β-phenyl-γ-butyrolactone], the LD50 at 72 h in data set [1] is over 2000 mg/kg. For the same molecule, the Paw volume was found to be 3.18 ± 0.17 mL with adjuvant arthritis (setting [2]) and 3.18 ± 0.18 mL with adjuvant arthritis (setting [3]).
For the molecule `Cc1ccc(C(=O)SCC2C(=O)OCC2c2ccc(Cl)cc2)cc1` (stereo not drawn) [Compound 1, β-(p-chlorophenyl)-α-(p-methylbenzoylthiomethyl)-γ-butyrolactone], in data set [1], the median lethal dose (LD50) at 72 h was over 4000 mg/kg.
In the case of `c1ccc([C@H]2CN3CCSC3=N2)cc1` [Levamisole, levamisole, reference compound], the “toxicity to a living body (in words)” value in the data set with living body is reported as “strong toxicity”. Moreover, the median lethal dose (LD50) at 72 h in data set [1] is under 1000 mg/kg.
As to `COc1ccc(C2COC(=O)C2CSC2CCCCC2)cc1` (stereo not drawn) [Compound 83, α-cyclohexylthiomethyl-β-(p-methoxyphenyl)-γ-butyrolactone], the Paw volume in the data set with adjuvant arthritis (setting [2]) amounted to 3.00 ± 0.16 mL.
With `CC(C)(S)[C@@H](N)C(=O)O` [D-penicillamine], the “toxicity to a living body (in words)” value in the data set with living body is “strong toxicity”.
On to `O=C(SCC1C(=O)OCC1c1ccc(Cl)cc1)c1ccccc1` (stereo not drawn) [Compound 74, α-benzoylthiomethyl-β-(p-chlorophenyl)-γ-butyrolactone], for which, in data set [1], the LD50 at 72 h is over 4000 mg/kg.
In data set [1], `O=C(SC[C@@H]1C(=O)OC[C@H]1c1ccc(Cl)cc1)c1ccc(F)cc1` (relative stereo) [Compound 23] yielded an LD50 at 72 h of over 4000 mg/kg. Further, the Paw volume was 2.84 ± 0.25 mL in the data set with adjuvant arthritis (3 mg/Kg oral everyday to 21st day, Control 3.48 ± 0.11); 2.78 ± 0.23 mL in the data set with adjuvant arthritis (setting [2]); 3.03 ± 0.25 mL in the data set with adjuvant arthritis (setting [3]).
